Values after ≈ are worked out from the molar mass of the structure shown. Like-named read-outs stand apart in the source and are kept apart here.
Tests used:
[1] = system: S. pneumoniae; experiment: microbe, parasite or virus in culture; assay type: cell-based; conditions: Streptococcus pneumoniae
[2] = system: H. influenzae; experiment: microbe, parasite or virus in culture; assay type: cell-based; conditions: Haemophilus influenzae
[3] = system: M. catarrhalis; experiment: microbe, parasite or virus in culture; assay type: cell-based
[4] = system: S. aureus MSSA; experiment: microbe, parasite or virus in culture; assay type: cell-based; conditions: Staphylococcus aureus
[5] = system: S. aureus MRSA; experiment: microbe, parasite or virus in culture; assay type: cell-based; conditions: Staphylococcus aureus
[6] = system: K. pneumoniae; experiment: microbe, parasite or virus in culture; assay type: cell-based; conditions: Klebsiella pneumoniae
[7] = system: S. pneumoniae (Sp); experiment: microbe, parasite or virus in culture; assay type: cell-based; conditions: Streptococcus pneumoniae
[8] = system: Porphyromonas gingivalis; experiment: microbe, parasite or virus in culture; assay type: cell-based, P. gingivalis; conditions: read-out: MIC of mutants
[9] = system: intracellular P. gingivalis in KB cells; assay type: cell-based
[10] = system: S. pneumoniae
[11] = 90% CI 86 to 97%
[12] = system: MSSA
[13] = system: MSSA; experiment: microbe, parasite or virus in culture; conditions: Staphylococcus aureus
[14] = system: MRSA; experiment: microbe, parasite or virus in culture; conditions: Staphylococcus aureus
[15] = system: Streptococcus pneumoniae; experiment: microbe, parasite or virus in culture; assay type: cell-based, S. pneumoniae
[16] = system: S. aureus (SA); experiment: microbe, parasite or virus in culture; assay type: cell-based; conditions: Staphylococcus aureus
[17] = system: Coag neg staphylococci (CoNS); experiment: organism not typed; assay type: cell-based
[18] = system: Enterococcus spp. (ESP); experiment: microbe, parasite or virus in culture; assay type: cell-based
[19] = system: S pneumoniae (SPN); experiment: microbe, parasite or virus in culture; assay type: cell-based
[20] = system: Viridans group streptococci (VGS); experiment: organism not typed; assay type: cell-based
[21] = system: Enterobacteriaceae (ENT); experiment: organism not typed; assay type: cell-based
[22] = system: E. coli ESBL; experiment: microbe, parasite or virus in culture; assay type: cell-based
[23] = system: Klebsiella spp. ESBL; experiment: microbe, parasite or virus in culture; assay type: cell-based
[24] = system: all resistant organism subsets; assay type: cell-based
[25] = system: S. aureus and/or streptococci; conditions: 30 of 35 pts
[26] = system: S. pneumoniae (SPN)
[27] = system: H. influenzae (Hi)
[28] = system: Enterobacter spp. (ENT)
[29] = system: beta-streptococci (BST); experiment: organism not typed
[30] = system: S. aureus and/or streptococcal baseline pathogens; experiment: microbe, parasite or virus in culture; conditions: Staphylococcus aureus, read-out: MIC values
[31] = system: S. pneumoniae (SPN); experiment: microbe, parasite or virus in culture; conditions: Streptococcus pneumoniae
[32] = system: H. influenzae (Hi); experiment: microbe, parasite or virus in culture; conditions: Haemophilus influenzae
[33] = system: M. catarrhalis (MCAT); experiment: microbe, parasite or virus in culture; conditions: Moraxella catarrhalis
[34] = system: S. aureus (SA); experiment: microbe, parasite or virus in culture; conditions: Staphylococcus aureus
[35] = system: Klebsiella spp. (KSP); experiment: microbe, parasite or virus in culture
[36] = system: Enterobacter spp. (ENT); experiment: microbe, parasite or virus in culture
[37] = system: Acinetobacter spp. (AC); experiment: microbe, parasite or virus in culture
[38] = system: E. coli (EC); experiment: microbe, parasite or virus in culture; conditions: Escherichia coli
[39] = system: Serratia spp. (SER); experiment: microbe, parasite or virus in culture
[40] = system: P. aeruginosa (PSA); experiment: microbe, parasite or virus in culture; conditions: Pseudomonas aeruginosa

With COc1c(N2C[C@@H]3CCCN[C@@H]3C2)c(F)cc2c(=O)c(C(=O)O)cn(C3CC3)c12 [moxifloxacin] the MIC90 [1] was 0.19 µg/mL (≈ 0.473 µM), the MIC90 [2] was 0.125 µg/mL (≈ 0.311 µM) and the “susceptible (%)” value [3] was 100%. For the same compound, the MIC90 ([3]; Moraxella catarrhalis) was 0.125 µg/mL (≈ 0.311 µM), the MIC90 [4] was 1 µg/mL (≈ 2.49 µM) and the MIC90 [5] was 8 µg/mL (≈ 19.9 µM). It also gave an MIC90 [6] of 0.75 µg/mL (≈ 1.87 µM), an MIC90 [7] of 0.25 µg/mL (≈ 0.623 µM) and an MIC [8] of over 32 µg/mL. For the same compound, the “concentration killing all intracellular P. gingivalis” value [9] was 100 fold MIC, the “%I” value ([10]; 2002 (n = 103)) was 3% and the “%R” value ([10]; 2002 (n = 103)) was 1%. For the same compound, the “%S” value ([10]; 2002 (n = 103)) was 96%, the “%I” value ([10]; 2003 (n = 137)) was 0% and the “%R” value ([10]; 2003 (n = 137)) was 1.5%. For the same compound, the “%S” value ([10]; 2003 (n = 137)) was 98.5%, the “%I” value ([10]; 2004 (n = 110)) was 0% and the “%R” value ([10]; 2004 (n = 110)) was 0%. For the same compound, the “%S” value ([10]; 2004 (n = 110)) was 100%, the “AUC point estimate B/A” value [11] was 91% and the “AUC point estimate C/A” value [11] was 91%. For the same compound, the “more active than ciprofloxacin” value [12] was 4 fold, the MIC50 [13] was 0.25 µg/mL (≈ 0.623 µM) and the MIC90 [14] was at least 16 µg/mL.

For CC[C@H]1OC(=O)[C@H](C)C(=O)[C@H](C)[C@@H](O[C@@H]2O[C@H](C)C[C@H](N(C)C)[C@H]2O)[C@](C)(OC)C[C@@H](C)C(=O)[C@H](C)[C@H]2N(CCCCn3cnc(-c4cccnc4)c3)C(=O)O[C@]12C [telithromycin], the MIC [15] was 4 µg/mL (≈ 4.93 µM).

With CN(C)c1cc(NC(=O)CNC(C)(C)C)c(O)c2c1C[C@H]1C[C@H]3[C@H](N(C)C)C(O)=C(C(N)=O)C(=O)[C@@]3(O)C(O)=C1C2=O [tigecycline] the MIC50 [16] was 0.25 µg/mL (≈ 0.427 µM), the MIC90 [16] was 0.5 µg/mL (≈ 0.854 µM) and the MIC50 [17] was at most 0.12 µg/mL. It also gave an MIC90 [17] of 0.5 µg/mL (≈ 0.854 µM), an MIC50 ([18]; Enterococcus) of at most 0.12 µg/mL and an MIC90 ([18]; Enterococcus) of 0.25 µg/mL (≈ 0.427 µM). For the same compound, the “MIC 50%” value ([18]; Van B (95)) was at most 0.12 µg/mL, the “MIC 90%” value ([18]; Van B (95)) was 0.25 µg/mL (≈ 0.427 µM) and the “% inhibited at ≤ 2 mg/L” value ([19]; CIP-R (171)) was 100%. For the same compound, the “MIC 50%” value ([19]; CIP-R (171)) was at most 0.12 µg/mL, the MIC50 ([19]; Streptococcus pneumoniae) was at most 0.12 µg/mL and the MIC90 ([19]; Streptococcus pneumoniae, CIP-R (171)) was at most 0.12 µg/mL. For the same compound, the MIC90 ([19]; Streptococcus pneumoniae, TET R (733)) was at most 0.12 µg/mL, the MIC90 ([19]; Streptococcus pneumoniae, […]) was 0.12 µg/mL (≈ 0.205 µM) and the “% inhibited at ≤ 2 mg/L” value ([19]; TET R (733)) was over 99%. The “% inhibited at ≤ 4 mg/L” value ([19]; TET R (733)) was over 99%, the “MIC 50%” value ([19]; TET R (733)) was at most 0.12 µg/mL and the “% inhibited at ≤ 2 mg/L” value ([19]; […]) was 100%. For the same compound, the MIC50 [20] was at most 0.12 µg/mL, the MIC90 [20] was 0.12 µg/mL (≈ 0.205 µM) and the “% inhibited at ≤ 4 mg/L” value [21] was 98%. The MIC50 [21] was 0.5 µg/mL (≈ 0.854 µM), the “MIC 50%” value [21] was 0.25 µg/mL (≈ 0.427 µM) and the MIC90 [21] was 4 µg/mL (≈ 6.83 µM). For the same compound, the “MIC 90%” value [21] was 2 µg/mL (≈ 3.41 µM), the “% inhibited at ≤ 2 mg/L” value ([22]; (279)) was over 99% and the “% inhibited at ≤ 4 mg/L” value ([22]; (279)) was 100%. The MIC50 ([22]; Escherichia coli) was 0.25 µg/mL (≈ 0.427 µM), the MIC90 ([22]; Escherichia coli) was 0.5 µg/mL (≈ 0.854 µM) and the “% inhibited at ≤ 4 mg/L” value ([23]; (317)) was 100%. For the same compound, the MIC50 ([23]; Klebsiella) was 0.5 µg/mL (≈ 0.854 µM), the MIC90 ([23]; Klebsiella) was 2 µg/mL (≈ 3.41 µM) and the “Total % Inhibited at ≤ 2 mg/L” value [24] was 97%. The “Total % Inhibited at ≤ 4 mg/L” value [24] was over 99%, the clinical cure [25] was 85.7% and the MIC90 ([26]; NP) was ≤0.12/≤0.12 mg/L. For the same compound, the MIC50 ([26]; NP (117)) was ≤0.12/≤0.12 mg/L, the MIC90 ([27]; NP) was 1 µg/mL (≈ 1.71 µM) and the MIC50 ([27]; NP (16)) was 0.5 µg/mL (≈ 0.854 µM). The “% ≤2 mg/L” value [28] was 98%, the “% ≤4 mg/L” value [28] was 100% and the MIC50 [29] was at most 0.12 µg/mL. The MIC90 [29] was at most 0.12 µg/mL, the MIC [30] was 0.06 to 0.5 µg/mL (≈ 0.102 to 0.854 µM) and the MIC50 [31] was at most 0.12 µg/mL. The MIC90 [31] was at most 0.12 µg/mL, the MIC50 [32] was 0.5 µg/mL (≈ 0.854 µM) and the MIC90 [32] was 1 µg/mL (≈ 1.71 µM). It also gave an MIC90 [33] of 0.25 µg/mL (≈ 0.427 µM), an MIC50 ([33]; CARTI (600)) of at most 0.12 µg/mL and an MIC50 ([33]; NP (7)) of 0.25 µg/mL (≈ 0.427 µM). It also gave an MIC50 [34] of 0.25 µg/mL (≈ 0.427 µM), an MIC90 [34] of 0.5 µg/mL (≈ 0.854 µM) and an MIC50 [35] of 0.5 µg/mL (≈ 0.854 µM). It also gave an MIC90 [35] of 1 µg/mL (≈ 1.71 µM), an MIC ([35]; read-out: MICs) of at most 2 µg/mL and an MIC50 [36] of 0.5 µg/mL (≈ 0.854 µM). The MIC90 [36] was 2 µg/mL (≈ 3.41 µM), the MIC50 [37] was 1 µg/mL (≈ 1.71 µM) and the MIC90 [37] was 4 µg/mL (≈ 6.83 µM). The MIC50 [38] was 0.25 µg/mL (≈ 0.427 µM), the MIC90 [38] was 0.5 µg/mL (≈ 0.854 µM) and the MIC ([38]; read-out: MICs) was at most 2 µg/mL. For the same compound, the MIC50 [39] was 1 µg/mL (≈ 1.71 µM), the MIC90 [39] was 4 µg/mL (≈ 6.83 µM) and the MIC90 [40] was 16 µg/mL (≈ 27.3 µM).
